Measured values: article PMC6264224, “A Practical Approach to New (5Z) 2-Alkylthio-5-arylmethylene-1-methyl-1,5-dihydro-4H-imidazol-4-one Derivatives” (Molecules, 2011)

## COc1ccc(/C=C2/C(=O)NC(=S)N2C)cc1O [4d, (5Z)-5-(3-Hydroxy-4-methoxybenzylidene)-1-methyl-2-thioxoimidazolidin-4-one]
  melting point: 203 to 205 °C
